Experimental data from patent US9796719B2, “Compounds and pharmaceutical compositions thereof for the treatment of inflammatory disorders” (GALAPAGOS NV, priority 2013, dated 2017).

How the values were obtained:
hENPP2 [1] = target: T1, hENPP2 (UniProtKB/SwissProt Sequence ref Q13822) (Homo sapiens (Human), UniProt Q13822); assay: LPC hENPP2 assay (choline release, LPC as substrate); format: biochemical
In short: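 Choline released from LPC by ENPP2 is quantified after stopping with stop-developer containing 0.6 U/mL choline oxidase, 0.6 U/mL peroxidase, 1.8 mM TOOS, 1.2 mM amino-antipyrine and 20 mM EGTA. Quinoneimine dye read at 555 nm after 30 min at room temperature.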

hENPP2 [2] = target: T1, hENPP2; assay: FS3 hENPP2 assay (fluorogenic substrate FS-3); format: biochemical; settings: hENPP2, FS-3 as substrate
Procedure: Compound IC50 values are determined in a fluorescent hENPP2 (UniProtKB/SwissProt Sequence ref Q13822) biochemical assay using the fluorogenic autotaxin substrate FS-3 as substrate. FS-3 is a doubly labeled analog of LPC wherein the fluorophore is quenched through intramolecular energy transfer. Without hENPP2, the emission of the probe is quenched. If the substrate is hydrolyzed by hENPP2, the emission of the probe is not quenched anymore resulting in a fluorescence increase. Inhibition of hENPP2 by compounds will result in a decrease of the signal.
10 μL of a dilution series of compound, starting from 20 μM highest concentration, ⅕ dilution, is added to the wells. hENPP2 is used at a final concentration of 0.4 μg/mL or 0.64 μg/mL (it will be appreciated by the skilled person that the potency read out is independent of the enzyme concentration). The enzyme is diluted in 50 mM Tris-HCl pH 8.0, 250 mM NaCl, 5 mM KCl, 1 mM MgCl2, 1 mM CaCl2, 0.1% fatty acid free BSA in a total volume of 20 μL. Enzyme mixture is added to compounds and the resulting mixture is incubated for 30 min at room temperature under shaking. The reaction is started by the addition of 20 μL of 0.75 μM FS-3 diluted in the same buffer as described above and the mixture is incubated at 30° C. for 30 min. Fluorescence is read on the Envision (Excitation 485 nm, emission 520 nm).

SMILES | IC50 (hENPP2 [1]) | IC50 (hENPP2 [2])
CCc1nc2ccc(N3CCC(CC(=O)N(C)C)CC3)nn2c1N(C)c1nc(-c2ccc(F)cc2)cs1 [Cpd 108, 2-(1-(2-ethyl-3-((4-(4-fluorophenyl)thiazol-2-yl)(methyl)amino)imidazo[1,2-b]pyridazin-6-yl)piperidin-4-yl)-N,N-dimethylacetamide] | 500 to 1000 nM | 0.01 to 25 nM
CN(c1nc(-c2ccc(F)cc2)c(C(=O)C(F)(F)F)s1)c1c(CCC#N)nc2ccc(C3CCN(S(C)(=O)=O)CC3)nn12 [Compound 199, 3-(3-((4-(4-fluorophenyl)-5-(2,2,2-trifluoroacetoyl)thiazol-2-yl)(methyl)amino)-6-(1-(methylsulfonyl)piperidin-4-yl)imidazo[1,2-b]pyridazin-2-yl)propanenitrile] | > 1000 nM | 0.01 to 25 nM
CN(c1nc(-c2ccc(F)cc2)cs1)c1c(CC#N)nc2ccc(C3=CCN(S(C)(=O)=O)CC3)nn12 [Compound 196, 2-(3-((4-(4-fluorophenyl)thiazol-2-yl)(methyl)amino)-6-(1-(methylsulfonyl)-1,2,3,6-tetrahydropyridin-4-yl)imidazo[1,2-b]pyridazin-2-yl)acetonitrile] | > 1000 nM | 0.01 to 25 nM
CCc1nc2ccc(C3CCN(CC(=O)N4CC(O)C4)CC3)nn2c1N(C)c1nc(-c2ccc(F)cc2)ccc1C#N [Cpd 217, 2-((2-ethyl-6-(1-(2-(3-hydroxyazetidin-1-yl)-2-oxoethyl)piperidin-4-yl)imidazo[1,2-b]pyridazin-3-yl)(methyl)amino)-6-(4-fluorophenyl) nicotinonitrile] | > 1000 nM | 50 to 100 nM
CCc1nc2ccc(N3CCS(=O)(=O)CC3)nn2c1N(C)c1nc(-c2ccc(F)cc2)cs1 [Compound 79, [6-(1,1-Dioxothiomorpholin-4-yl)-2-ethyl-imidazo[1,2-b]pyridazin-3-yl]-[4-(4-fluoro-phenyl)-thiazol-2-yl]-methyl-amine] | > 1000 nM | 25 to 50 nM
CCc1nc2ccc(N3CC4CN(S(=O)(=O)CCCN(C)C)CC4C3)nn2c1N(C)c1nc(-c2ccc(F)cc2)cs1 (stereo not shown) [Cpd 126, N-(6-(5-(3-(dimethylamino)propylsulfonyl)hexahydropyrrolo [3,4-c]pyrrol-2(1H)-yl)-2-ethylimidazo[1,2-b]pyridazin-3-yl)-4-(4-fluorophenyl)-N-methylthiazol-2-amine] | 500 to 1000 nM | 0.01 to 25 nM
CCc1nc2ccc(N3CCN(CC(=O)N4CC(O)C4)CC3)nn2c1N(C)c1nc(-c2ccc(F)cc2)cs1 [Cpd 26] | 100 to 500 nM | 0.01 to 25 nM
CCc1nc2ccc(C3CCN(CC(=O)N4CC(O)C4)CC3)nn2c1N(C)c1cccc(-c2ccc(F)cc2)n1 [Cpd 214, 2-(4-(2-ethyl-3-((6-(4-fluorophenyl)pyridin-2-yl)(methyl)amino)imidazo[1,2-b]pyridazin-6-yl)piperidin-1-yl)-1-(3-hydroxyazetidin-1-yl)ethanone] | 500 to 1000 nM | 0.01 to 25 nM
CCc1nc2ccc(N3CCN(CCC#N)CC3)nn2c1N(C)c1nc(-c2ccc(F)cc2)cs1 [Cpd 51] | > 1000 nM | 0.01 to 25 nM
CCc1nc2ccc(N3CCCC3CO)nn2c1N(C)c1nc(-c2ccc(F)cc2)cs1 (stereo not shown) [Cpd 142, (1-(2-ethyl-3-((4-(4-fluorophenyl)thiazol-2-yl)(methyl)amino)imidazo[1,2-b]pyridazin-6-yl)pyrrolidin-2-yl)methanol] | > 1000 nM | 0.01 to 25 nM
CCc1nc2cnc(N3CCN(CC(=O)N4CC(F)C4)CC3)cn2c1N(C)c1nc(-c2ccc(F)cc2)c(C#N)s1 [Cpd 11, 2-((2-ethyl-6-(4-(2-(3-fluoroazetidin-1-yl)-2-oxoethyl)piperazin-1-yl)imidazo[1,2-a]pyrazin-3-yl)(methyl)amino)-4-(4-fluorophenyl) thiazole-5-carbonitrile] | 100 to 500 nM | 0.01 to 25 nM
CCc1nc2ccc(N3CCN(CCNC(C)=O)CC3)nn2c1N(C)c1nc(-c2ccc(F)cc2)cs1 [Cpd 57, N-(2-(4-(2-ethyl-3-((4-(4-fluorophenyl)thiazol-2-yl)(methyl)amino)imidazo[1,2-b]pyridazin-6-yl)piperazin-1-yl)ethyl)acetamide] | 100 to 500 nM | 0.01 to 25 nM
CCc1nc2ccc(N3CCC(N4CCOCC4)C3)nn2c1N(C)c1nc(-c2ccc(F)cc2)cs1 (stereo not shown) [Cpd 147, N-(2-ethyl-6-(3-morpholino-pyrrolidin-1-yl)imidazo[1,2-b]pyridazin-3-yl)-4-(4-fluorophenyl)-N-methylthiazol-2-amine] | 100 to 500 nM | 0.01 to 25 nM
CCc1nc2ccc(N3CCN(CCOC)CC3)nn2c1N(C)c1nc(-c2ccc(F)cc2)cs1 [Cpd 53, N-(2-ethyl-6-(4-(2-methoxyethyl)piperazin-1-yl)imidazo[1,2-b]pyridazin-3-yl)-4-(4-fluorophenyl)-N-methylthiazol-2-amine] | > 1000 nM | 0.01 to 25 nM
CCc1nc2ccc(N3CCC(N4CCC(O)CC4)C3)nn2c1N(C)c1nc(-c2ccc(F)cc2)cs1 (stereo not shown) [Cpd 152, 1-(1-(2-ethyl-3-((4-(4-fluorophenyl)thiazol-2-yl)(methyl)amino)imidazo[1,2-b]pyridazin-6-yl)pyrrolidin-3-yl)piperidin-4-ol] | 500 to 1000 nM | 0.01 to 25 nM
CN(c1nc(-c2ccc(F)cc2)cs1)c1c(CCCO)nc2ccc(C3CCN(S(C)(=O)=O)CC3)nn12 [Compound 200, 3-(3-((4-(4-fluorophenyl)thiazol-2-yl)(methyl)amino)-6-(1-(methylsulfonyl)piperidin-4-yl)imidazo[1,2-b]pyridazin-2-yl)propan-1-ol] | > 1000 nM | 0.01 to 25 nM
CCc1nc2ccc(N3CCN(CC(=O)N(C)C)CC3)nn2c1N(C)c1nc(-c2ccc(F)cc2)c(CO)s1 [Cpd 43, 2-(4-(2-ethyl-3-((4-(4-fluorophenyl)-5-(hydroxymethyl)thiazol-2-yl)(methyl)amino)imidazo[1,2-b]pyridazin-6-yl)piperazin-1-yl)-N,N-dimethylacetamide] | 100 to 500 nM | 0.01 to 25 nM

Continued, values first:

IC50 (hENPP2 [1]) | IC50 (hENPP2 [2]) | SMILES
> 1000 nM | 0.01 to 25 nM | CCc1nc2ccc(N3CCN[C@H](CO)C3)nn2c1N(C)c1nc(-c2ccc(F)cc2)cs1 [Cpd 60, (S)-(4-(2-ethyl-3-((4-(4-fluorophenyl)thiazol-2-yl)(methyl)amino)imidazo[1,2-b]pyridazin-6-yl)piperazin-2-yl)methanol]
> 1000 nM | 0.01 to 25 nM | CCc1nc2ccc(N3CCCC(C(N)=O)C3)nn2c1N(C)c1nc(-c2ccc(F)cc2)cs1 (stereo not shown) [Cpd 99, 1-(2-ethyl-3-((4-(4-fluorophenyl)thiazol-2-yl)(methyl)amino)imidazo[1,2-b]pyridazin-6-yl)piperidine-3-carboxamide]
100 to 500 nM | 0.01 to 25 nM | CCc1nc2ccc(N3CCN(S(C)(=O)=O)[C@H](CO)C3)nn2c1N(C)c1nc(-c2ccc(F)cc2)cs1 [Cpd 67, (S)-(4-(2-ethyl-3-((4-(4-fluorophenyl)thiazol-2-yl)(methyl)amino)imidazo[1,2-b]pyridazin-6-yl)-1-(methylsulfonyl)piperazin-2-yl)methanol]
> 1000 nM | 0.01 to 25 nM | CCc1nc2ccc(N3CCC(NC(=O)OC(C)(C)C)C3)nn2c1N(C)c1nc(-c2ccc(F)cc2)cs1 (stereo not shown) [Cpd 133, tert-butyl 1-(2-ethyl-3-((4-(4-fluorophenyl)thiazol-2-yl)(methyl)amino)imidazo[1,2-b]pyridazin-6-yl)pyrrolidin-3-ylcarbamate]
> 1000 nM | 0.01 to 25 nM | CCc1nc2ccc(N3CCC(N)C3)nn2c1N(C)c1nc(-c2ccc(F)cc2)cs1 (stereo not shown) [Cpd 134, N-(6-(3-aminopyrrolidin-1-yl)-2-ethylimidazo[1,2-b]pyridazin-3-yl)-4-(4-fluorophenyl)-N-methylthiazol-2-amine]
> 1000 nM | 0.01 to 25 nM | CCc1nc2ccc(N3CCC(CO)CC3)nn2c1N(C)c1nc(-c2ccc(F)cc2)cs1 [Cpd 93, (1-(2-ethyl-3-((4-(4-fluorophenyl)thiazol-2-yl)(methyl)amino)imidazo[1,2-b]pyridazin-6-yl)piperidin-4-yl)methanol]
> 1000 nM | 0.01 to 25 nM | CCc1nc2ccc(N3CCC(NS(C)(=O)=O)C3)nn2c1N(C)c1nc(-c2ccc(F)cc2)cs1 (stereo not shown) [Cpd 137, N-(1-(2-ethyl-3-((4-(4-fluorophenyl)thiazol-2-yl)(methyl)amino)imidazo[1,2-b]pyridazin-6-yl)pyrrolidin-3-yl)methane-sulfonamide]
> 1000 nM | 50 to 100 nM | CCc1nc2ccc(N3CCC(S(=O)(=O)NC4CC4)CC3)nn2c1N(C)c1nc(-c2ccc(F)cc2)cs1 [Cpd 114, N-cyclopropyl-1-(2-ethyl-3-((4-(4-fluorophenyl)thiazol-2-yl)(methyl)amino)imidazo[1,2-b]pyridazin-6-yl)piperidine-4-sulfonamide]
> 1000 nM | 0.01 to 25 nM | CCc1nc2ccc(N3CCC(O)C3)nn2c1N(C)c1nc(-c2ccc(F)cc2)cs1 (stereo not shown) [Cpd 129, 1-(2-ethyl-3-((4-(4-fluorophenyl)thiazol-2-yl)(methyl)amino)imidazo[1,2-b]pyridazin-6-yl)pyrrolidin-3-ol]
